The experiment addresses T1, human thrombin (Homo sapiens, UniProt P00734).
T1 construct: human thrombin, bovine thrombin, and Ancrod; purchased Sigma Chemical
The experiment is described as follows: Fibrinogen clotting assay (fibrometer) with thrombin. It counts as biochemical. Conditions: final concentration of 10 U/ml. How it is done:
Fibrinogen clotting times (S=seconds) in the presence of varying concentrations (μM) of the peptide were determined with a fibrometer following addition of thrombin. Each concentration of peptide was assayed in triplicate. Error bars indicate standard deviations.
All reagents were equilibrated to 37° C. before mixing.

Take Heparin: the “effect on clotting time” value was “no effect on clotting time”.

These data come from US4861865A, “Novel antithrombin peptide” (Washington University, priority 1989, dated 1989).
